# According to patent US20220151229A1, “Synergistic Herbicidal Combinations” (Clariant International Ltd., priority 2019, published 2022):
# Legend:
# Assay type in all cases: in vivo
# Sectaria Viridis - SETVI = experiment: Greenhouse post-emergence herbicide trial, Sectaria Viridis; conditions: 200 L/ha
# Text: (§1) Standard post emergence herbicide application procedures were used, as described below, to apply inventive compounds in combination with sulfonylurea herbicides.
# (§2) Seed of monocotyledonous and dicotyledonous harmful plants such as Brassica napus (BRSNW) Abutilon theophrasti (ABUTH), Alopecurus myosuroides (ALOMY), Amaranthus retroflexus (AMARE), Digitaria Sanguinalis (DIGSA), Echinochloa crus-galli (ECHCG), Erigeron canadensis (ERICA), Galium aparine (GALAP), Lolium perenne (LOLPE), Sectaria viridis (SETVI), Solanun nigrum (SOLNI), Viola arvensis (VIOAR) were sowed in 18 cm^2 pots. The plants were placed in a greenhouse under controlled environmental conditions, and sub-irrigation. About one week after emergence, seedlings were thinned as needed, including removal of any unhealthy or abnormal plants, to create a uniform series of test pots.
# (§3) The plants were maintained for the duration of the test in the greenhouse, where they received a mean of 70 μmol m-2 s-1 of light per day/night. Temperatures averages about 24° C. during the day and about 20° C. during the night. Plants were sub-irrigated throughout the test to ensure adequate soil moisture levels.
# (§4) Pots were assigned to different treatment in a randomized experimental design. A set of pots was left untreated as a reference against which effects of the treatments could later be evaluated. Application of tested formulations was made in a spray cabin model 01S-15E designed by CheckTec using the following parameters: • Two edge nozzle Lechler OC2, 200 L/ha, 3 bars. • Two edge nozzle Lechler OC3, 500 L/ha, 3 bars.
# (§5) The distance of the nozzle from the plants was between 50 to 53 cm. and the nozzle spacing was 50 cm.
# (§6) After treatment, pots were returned to the greenhouse until ready for evaluation. Evaluations were performed at different times after application (DAT: days after treatment), depending on the experiment.
# (§7) For evaluation of herbicidal effectiveness, all plants in the test were examined by a single technician, who recorded percent control, a visual measurement of the effectiveness of each treatment by comparison with untreated plants. […] The reported % control values represent the average for all replicates of each treatment.
# (§8) Iodosulfuron-methyl-sodium and Nicosulfuron were applied as dilutions of the active ingredient in water.
# Galium aparine - GALAP = experiment: Greenhouse post-emergence herbicide trial, Galium aparine; conditions: 200 L/ha
# Text: as §1, §2, §3, §4, §5, §6, §7, §8
# Brassica napus - BRSNW = experiment: Greenhouse post-emergence herbicide trial, Brassica napus; conditions: 200 L/ha, A1 7.5 % w/w
# Text: as §1, §2, §3, §4, §5, §6, §7, §8
# Lolium perenne - LOLPE = experiment: Greenhouse post-emergence herbicide trial, Lolium perenne; conditions: 200 L/ha, A1 7.5 % w/w
# Text: as §1, §2, §3, §4, §5, §6, §7, §8
# Solanum nigrum - SOLNI = experiment: Greenhouse post-emergence herbicide trial, Solanum nigrum
# Text: as §1, §2, §3, §4, §5, §6, §7, §8
# [1] = Nicosulfuron 40 g Al/ha, 10 DAT
# [2] = Nicosulfuron 40 g Al/ha, 16 DAT
# [3] = Nicosulfuron 40 g Al/ha, 22 DAT
# [4] = Nicosulfuron 40 g Al/ha, 28 DAT
compound,measurement,setting,value
"COc1cc(OC)nc(NC(=O)NS(=O)(=O)c2ncccc2C(=O)N(C)C)n1 [Nicosulfuron, nicosulfuron, reference compound]",Effectiveness control,"Sectaria Viridis - SETVI; Nicosulfuron 40 g Al/ha, 1 DAT",0.00%
same,Effectiveness control,"Sectaria Viridis - SETVI; Nicosulfuron 40 g Al/ha, 2 DAT",0.00%
same,Effectiveness control,"Sectaria Viridis - SETVI; Nicosulfuron 40 g Al/ha, 7 DAT",5.00%
same,Effectiveness control,Sectaria Viridis - SETVI; [1],7.00%
same,Effectiveness control,Sectaria Viridis - SETVI; [2],10.75%
same,Effectiveness control,Sectaria Viridis - SETVI; [3],7.75%
same,Effectiveness control,Sectaria Viridis - SETVI; [4],7.00%
same,Effectiveness control,"Galium aparine - GALAP; Nicosulfuron 40 g Al/ha, 1 DAT",0.00%
same,Effectiveness control,"Galium aparine - GALAP; Nicosulfuron 40 g Al/ha, 2 DAT",0.00%
same,Effectiveness control,"Galium aparine - GALAP; Nicosulfuron 40 g Al/ha, 7 DAT",3.00%
same,Effectiveness control,Galium aparine - GALAP; [1],10.00%
same,Effectiveness control,Galium aparine - GALAP; [2],12.75%
same,Effectiveness control,Galium aparine - GALAP; [3],12.75%
same,Effectiveness control,Galium aparine - GALAP; [4],12.75%
Pelargonic acid 6 EO ester methyl ether [A1],Effectiveness control,Brassica napus - BRSNW; 1 DAT,74.25%
same,Effectiveness control,Brassica napus - BRSNW; 2 DAT,78.00%
same,Effectiveness control,Brassica napus - BRSNW; 7 DAT,75.00%
same,Effectiveness control,Brassica napus - BRSNW; 10 DAT,56.25%
same,Effectiveness control,Brassica napus - BRSNW; 16 DAT,39.25%
same,Effectiveness control,Brassica napus - BRSNW; 22 DAT,33.50%
same,Effectiveness control,Brassica napus - BRSNW; 28 DAT,32.50%
same,Effectiveness control,"Sectaria Viridis - SETVI; A1 7.5 % w/w, 1 DAT",19.25%
same,Effectiveness control,"Sectaria Viridis - SETVI; A1 7.5 % w/w, 2 DAT",21.25%
same,Effectiveness control,"Sectaria Viridis - SETVI; A1 7.5 % w/w, 7 DAT",21.25%
same,Effectiveness control,"Sectaria Viridis - SETVI; A1 7.5 % w/w, 10 DAT",20.00%
same,Effectiveness control,"Sectaria Viridis - SETVI; A1 7.5 % w/w, 16 DAT",16.00%
same,Effectiveness control,"Sectaria Viridis - SETVI; A1 7.5 % w/w, 22 DAT",16.00%
same,Effectiveness control,"Sectaria Viridis - SETVI; A1 7.5 % w/w, 28 DAT",0.00%
same,Effectiveness control,Lolium perenne - LOLPE; 1 DAT,11.50%
same,Effectiveness control,Lolium perenne - LOLPE; 2 DAT,11.50%
same,Effectiveness control,Lolium perenne - LOLPE; 7 DAT,5.00%
same,Effectiveness control,Lolium perenne - LOLPE; 10 DAT,0.00%
same,Effectiveness control,Lolium perenne - LOLPE; 16 DAT,0.00%
same,Effectiveness control,Lolium perenne - LOLPE; 22 DAT,0.00%
same,Effectiveness control,Lolium perenne - LOLPE; 28 DAT,0.00%
same,Effectiveness control,"Galium aparine - GALAP; A1 7.5 % w/w, 1 DAT",31.75%
same,Effectiveness control,"Galium aparine - GALAP; A1 7.5 % w/w, 2 DAT",34.00%
same,Effectiveness control,"Galium aparine - GALAP; A1 7.5 % w/w, 7 DAT",35.75%
same,Effectiveness control,"Galium aparine - GALAP; A1 7.5 % w/w, 10 DAT",20.00%
same,Effectiveness control,"Galium aparine - GALAP; A1 7.5 % w/w, 16 DAT",10.75%
same,Effectiveness control,"Galium aparine - GALAP; A1 7.5 % w/w, 22 DAT",10.75%
same,Effectiveness control,"Galium aparine - GALAP; A1 7.5 % w/w, 28 DAT",10.75%
same,Effectiveness control,"Solanum nigrum - SOLNI; 200 L/ha, A1 0.1 % w/w, 1 DAT",0.00%
same,Effectiveness control,"Solanum nigrum - SOLNI; 200 L/ha, A1 0.1 % w/w, 2 DAT",0.00%
same,Effectiveness control,"Solanum nigrum - SOLNI; 200 L/ha, A1 0.1 % w/w, 7 DAT",0.00%
same,Effectiveness control,"Solanum nigrum - SOLNI; 200 L/ha, A1 0.1 % w/w, 15 DAT",0.00%
same,Effectiveness control,"Solanum nigrum - SOLNI; 200 L/ha, A1 0.1 % w/w, 21 DAT",0.00%
same,Effectiveness control,"Solanum nigrum - SOLNI; 200 L/ha, A1 2.5 % w/w, 1 DAT",0.00%
same,Effectiveness control,"Solanum nigrum - SOLNI; 200 L/ha, A1 2.5 % w/w, 2 DAT",0.00%
same,Effectiveness control,"Solanum nigrum - SOLNI; 200 L/ha, A1 2.5 % w/w, 7 DAT",0.00%
same,Effectiveness control,"Solanum nigrum - SOLNI; 200 L/ha, A1 2.5 % w/w, 15 DAT",0.00%
same,Effectiveness control,"Solanum nigrum - SOLNI; 200 L/ha, A1 2.5 % w/w, 21 DAT",0.00%
same,Effectiveness control,"Solanum nigrum - SOLNI; 200 L/ha, A1 5 % w/w, 1 DAT",0.75%
same,Effectiveness control,"Solanum nigrum - SOLNI; 200 L/ha, A1 5 % w/w, 2 DAT",3.50%
same,Effectiveness control,"Solanum nigrum - SOLNI; 200 L/ha, A1 5 % w/w, 7 DAT",3.50%
same,Effectiveness control,"Solanum nigrum - SOLNI; 200 L/ha, A1 5 % w/w, 15 DAT",0.00%
same,Effectiveness control,"Solanum nigrum - SOLNI; 200 L/ha, A1 5 % w/w, 21 DAT",0.00%
same,Effectiveness control,"Solanum nigrum - SOLNI; 200 L/ha, A1 10 % w/w, 1 DAT",25.00%
same,Effectiveness control,"Solanum nigrum - SOLNI; 200 L/ha, A1 10 % w/w, 2 DAT",48.50%
same,Effectiveness control,"Solanum nigrum - SOLNI; 200 L/ha, A1 10 % w/w, 7 DAT",50.50%
same,Effectiveness control,"Solanum nigrum - SOLNI; 200 L/ha, A1 10 % w/w, 15 DAT",47.50%
same,Effectiveness control,"Solanum nigrum - SOLNI; 200 L/ha, A1 10 % w/w, 21 DAT",38.75%
same,Effectiveness control,"Solanum nigrum - SOLNI; 500 L/ha, A1 0.1 % w/w, 1 DAT",0.00%
same,Effectiveness control,"Solanum nigrum - SOLNI; 500 L/ha, A1 0.1 % w/w, 2 DAT",0.00%
same,Effectiveness control,"Solanum nigrum - SOLNI; 500 L/ha, A1 0.1 % w/w, 7 DAT",0.00%
same,Effectiveness control,"Solanum nigrum - SOLNI; 500 L/ha, A1 0.1 % w/w, 15 DAT",0.00%
same,Effectiveness control,"Solanum nigrum - SOLNI; 500 L/ha, A1 0.1 % w/w, 21 DAT",0.00%
same,Effectiveness control,"Solanum nigrum - SOLNI; 500 L/ha, A1 2.5 % w/w, 1 DAT",10.00%
same,Effectiveness control,"Solanum nigrum - SOLNI; 500 L/ha, A1 2.5 % w/w, 2 DAT",21.25%
same,Effectiveness control,"Solanum nigrum - SOLNI; 500 L/ha, A1 2.5 % w/w, 7 DAT",13.75%
same,Effectiveness control,"Solanum nigrum - SOLNI; 500 L/ha, A1 2.5 % w/w, 15 DAT",7.75%
same,Effectiveness control,"Solanum nigrum - SOLNI; 500 L/ha, A1 2.5 % w/w, 21 DAT",5.00%
same,Effectiveness control,"Solanum nigrum - SOLNI; 500 L/ha, A1 5 % w/w, 1 DAT",26.00%
same,Effectiveness control,"Solanum nigrum - SOLNI; 500 L/ha, A1 5 % w/w, 2 DAT",42.50%
same,Effectiveness control,"Solanum nigrum - SOLNI; 500 L/ha, A1 5 % w/w, 7 DAT",32.50%
same,Effectiveness control,"Solanum nigrum - SOLNI; 500 L/ha, A1 5 % w/w, 15 DAT",28.75%
same,Effectiveness control,"Solanum nigrum - SOLNI; 500 L/ha, A1 5 % w/w, 21 DAT",27.50%
same,Effectiveness control,"Solanum nigrum - SOLNI; 500 L/ha, A1 10 % w/w, 1 DAT",65.50%
same,Effectiveness control,"Solanum nigrum - SOLNI; 500 L/ha, A1 10 % w/w, 2 DAT",75.50%
same,Effectiveness control,"Solanum nigrum - SOLNI; 500 L/ha, A1 10 % w/w, 7 DAT",72.50%
same,Effectiveness control,"Solanum nigrum - SOLNI; 500 L/ha, A1 10 % w/w, 15 DAT",63.75%
same,Effectiveness control,"Solanum nigrum - SOLNI; 500 L/ha, A1 10 % w/w, 21 DAT",53.00%
